In patent US20260055114A1, “IMIDAZO[1,2-B]PYRIDAZINE INHIBITORS OF CYCLIN-DEPENDENT KINASES” (H. LEE MOFFITT CANCER CENTER AND RESEARCH INSTITUTE, INC., priority 2022, published 2026):

Tests used:
[1] = molecular target: CDK12 (Homo sapiens, UniProt Q9NYV4); test: Inhibition of cyclin-dependent kinase 12 (% enzyme activity at 1 uM and IC50); format: biochemical; settings: for remaining activity at 1 µM: 1 uM compound
[2] = system: MDA-MB-231 cell line; test: Antiproliferative activity, MDA-MB-231 cell line (GI50); format: cell-based; settings: Homo sapiens
[3] = system: CCNK; test: CCNK degradation (DC50, Dmax); format: cell-based; settings: for Dmax (%): CCNK degradation

Chain of CDK12 (Q9NYV4 whole entry): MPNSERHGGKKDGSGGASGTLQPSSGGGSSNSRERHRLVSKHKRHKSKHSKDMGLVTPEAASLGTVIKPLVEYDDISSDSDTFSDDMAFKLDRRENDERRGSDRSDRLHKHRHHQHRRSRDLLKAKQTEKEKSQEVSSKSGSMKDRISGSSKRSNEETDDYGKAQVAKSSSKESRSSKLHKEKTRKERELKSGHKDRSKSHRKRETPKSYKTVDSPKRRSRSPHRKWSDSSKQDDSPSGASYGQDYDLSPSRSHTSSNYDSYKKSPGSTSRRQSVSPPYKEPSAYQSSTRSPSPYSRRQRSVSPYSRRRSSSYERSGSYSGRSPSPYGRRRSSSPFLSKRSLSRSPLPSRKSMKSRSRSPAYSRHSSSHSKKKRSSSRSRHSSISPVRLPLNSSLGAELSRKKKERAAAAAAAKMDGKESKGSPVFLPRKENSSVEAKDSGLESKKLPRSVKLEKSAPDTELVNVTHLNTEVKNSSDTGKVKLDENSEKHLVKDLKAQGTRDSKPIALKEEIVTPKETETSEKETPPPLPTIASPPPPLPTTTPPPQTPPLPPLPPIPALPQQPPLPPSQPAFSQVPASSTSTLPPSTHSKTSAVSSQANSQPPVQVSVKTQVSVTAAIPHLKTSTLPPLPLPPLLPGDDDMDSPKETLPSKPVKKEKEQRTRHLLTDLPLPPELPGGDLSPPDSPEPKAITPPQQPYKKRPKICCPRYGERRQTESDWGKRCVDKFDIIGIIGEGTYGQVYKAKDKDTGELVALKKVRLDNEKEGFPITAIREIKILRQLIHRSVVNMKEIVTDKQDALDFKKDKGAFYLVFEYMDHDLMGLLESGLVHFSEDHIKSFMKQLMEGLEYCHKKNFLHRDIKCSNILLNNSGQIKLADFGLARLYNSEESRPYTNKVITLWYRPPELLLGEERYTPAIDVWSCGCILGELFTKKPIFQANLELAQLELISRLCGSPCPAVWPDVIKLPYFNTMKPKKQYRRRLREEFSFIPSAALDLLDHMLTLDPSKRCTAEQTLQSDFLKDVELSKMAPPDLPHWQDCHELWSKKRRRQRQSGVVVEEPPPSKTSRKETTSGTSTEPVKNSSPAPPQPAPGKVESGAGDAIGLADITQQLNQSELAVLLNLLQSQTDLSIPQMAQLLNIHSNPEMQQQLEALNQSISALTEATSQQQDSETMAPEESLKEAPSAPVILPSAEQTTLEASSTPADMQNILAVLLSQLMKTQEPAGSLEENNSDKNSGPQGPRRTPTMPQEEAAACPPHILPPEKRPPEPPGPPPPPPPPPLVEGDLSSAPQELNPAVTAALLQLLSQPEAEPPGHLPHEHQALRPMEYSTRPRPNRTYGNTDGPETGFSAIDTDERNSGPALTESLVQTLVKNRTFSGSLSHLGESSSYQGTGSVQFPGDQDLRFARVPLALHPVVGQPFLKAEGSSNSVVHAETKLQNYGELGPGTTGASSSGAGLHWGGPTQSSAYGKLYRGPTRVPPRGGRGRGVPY
Chain of CDK12 (O75909 whole entry partner): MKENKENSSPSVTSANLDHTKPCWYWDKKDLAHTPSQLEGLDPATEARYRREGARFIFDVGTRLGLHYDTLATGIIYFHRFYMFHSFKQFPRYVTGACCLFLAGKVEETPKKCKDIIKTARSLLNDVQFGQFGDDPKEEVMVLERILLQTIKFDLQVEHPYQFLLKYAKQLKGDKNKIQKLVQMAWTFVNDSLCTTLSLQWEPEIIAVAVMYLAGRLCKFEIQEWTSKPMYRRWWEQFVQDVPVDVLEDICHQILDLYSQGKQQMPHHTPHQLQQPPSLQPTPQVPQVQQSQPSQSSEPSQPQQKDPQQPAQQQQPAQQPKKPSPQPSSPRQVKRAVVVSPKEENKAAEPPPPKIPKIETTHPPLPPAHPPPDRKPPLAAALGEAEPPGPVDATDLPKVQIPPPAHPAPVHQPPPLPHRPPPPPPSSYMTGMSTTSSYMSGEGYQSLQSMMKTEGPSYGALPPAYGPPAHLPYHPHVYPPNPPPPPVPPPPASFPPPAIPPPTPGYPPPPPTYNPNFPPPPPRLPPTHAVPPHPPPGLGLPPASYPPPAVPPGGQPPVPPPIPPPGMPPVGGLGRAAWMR

Molecule `CC(C)n1cc(-c2cnc3c(NCc4nc5cccc(Cl)c5[nH]4)cc(N4CCOCC4)nn23)cn1` [Cmpd 18, N-((7-chloro-1H-benzo[d]imidazol-2-yl)methyl)-3-(1-isopropyl-1H-pyrazol-4-yl)-6-morpholinoimidazo[1,2-b]pyridazin-8-amine] has an IC50 [1] of 997 nM, a remaining activity at 1 µM [1] of 48% and a GI50 [2] of 9920 nM. For the same molecule, the DC50 [3] was 1800 nM and the “Dmax (%)” value [3] was 70%.
`Clc1cccc2nc(CNc3cc(N4CCOCC4)nn4c(-c5cnn(C6CC6)c5)cnc34)[nH]c12` [Cmpd 33, N-((7-chloro-1H-benzo[d]imidazol-2-yl)methyl)-3-(1-cyclopropyl-1H-pyrazol-4-yl)-6-morpholinoimidazo[1,2-b]pyridazin-8-amine] was tested, and the remaining activity at 1 µM [1] was 60%, the GI50 [2] was 6160 nM and the DC50 [3] was 830 nM. The “Dmax (%)” value [3] was 65%.
Work on `Cc1noc(C)c1-c1cnc2c(NCc3nc4cc(Cl)c(Cl)cc4[nH]3)cc(N3CCN(C)CC3)nn12` [Cmpd 99, N-((5,6-dichloro-1H-benzo[d]imidazol-2-yl)methyl)-3-(3,5-dimethylisoxazol-4-yl)-6-(4-methylpiperazin-1-yl) imidazo[1,2-b]pyridazin-8-amine] yielded an IC50 [1] of 1250 nM, a remaining activity at 1 µM [1] of 59% and a GI50 [2] of 689 nM. The DC50 [3] was 10000 nM.
`CN1CCN(c2cc(NCc3nc4cccc(Cl)c4[nH]3)c3ncc(-c4cnn(C5CC5)c4)n3n2)CC1` [Cmpd 32, N-((7-chloro-1H-benzo[d]imidazol-2-yl)methyl)-3-(1-cyclopropyl-1H-pyrazol-4-yl)-6-(4-methylpiperazin-1-yl) imidazo[1,2-b]pyridazin-8-amine] gave an IC50 [1] of 2080 nM, a remaining activity at 1 µM [1] of 45% and a GI50 [2] of 4430 nM. For the same molecule, the DC50 [3] was 1400 nM and the “Dmax (%)” value [3] was 50%.
With `Clc1cccc2nc(CNc3cc(NC4CCNCC4)nn4c(-c5ccsc5)cnc34)[nH]c12` [Cmpd 72, N8-((7-chloro-1H-benzo[d]imidazol-2-yl)methyl)-N6-(piperidin-4-yl)-3-(thiophen-3-yl) imidazo[1,2-b]pyridazine-6,8-diamine] the IC50 [1] was 56 nM, the GI50 [2] was 49 nM and the DC50 [3] was 50 nM. The “Dmax (%)” value [3] was 100%.
`NC1CCN(c2cc(NCc3nc4cc(Cl)c(Cl)cc4[nH]3)c3ncc(-c4cnn(C(F)F)c4)n3n2)C1` (stereo not drawn) [Cmpd 44, 6-(3-aminopyrrolidin-1-yl)-N-((5,6-dichloro-1H-benzo[d]imidazol-2-yl)methyl)-3-(1-(difluoromethyl)-1H-pyrazol-4-yl) imidazo[1,2-b]pyridazin-8-amine] was tested, and the IC50 [1] was 1420 nM, the GI50 [2] was 154 nM and the DC50 [3] was 440 nM. The “Dmax (%)” value [3] was 100%.
With `CN1CCN(c2cc(NCc3nc4c(F)c(F)ccc4[nH]3)c3ncc(-c4cnn(C5CC5)c4)n3n2)CC1` [Cmpd 38, 3-(1-cyclopropyl-1H-pyrazol-4-yl)-N-((4,5-difluoro-1H-benzo[d]imidazol-2-yl)methyl)-6-(4-methylpiperazin-1-yl) imidazo[1,2-b]pyridazin-8-amine] the remaining activity at 1 µM [1] was 53%, the GI50 [2] was 5430 nM and the DC50 [3] was 1600 nM. The “Dmax (%)” value [3] was 65%.
`Cc1ccnc2[nH]c(CNc3cc(N4CCOCC4)nn4c(-c5cnn(C(C)C)c5)cnc34)nc12` [Cmpd 21, 3-(1-isopropyl-1H-pyrazol-4-yl)-N-((7-methyl-3H-imidazo[4,5-b]pyridin-2-yl)methyl)-6-morpholinoimidazo[1,2-b]pyridazin-8-amine] gave an IC50 [1] of 722 nM, a remaining activity at 1 µM [1] of 34% and a GI50 [2] of 10000 nM. It also gave a DC50 [3] of 10000 nM.
Molecule `CN1CCN(c2cc(NCc3nc4cc(Cl)c(Cl)cc4[nH]3)c3ncc(-c4cnn(C(F)F)c4)n3n2)CC1` [Cmpd 41, N-((5,6-dichloro-1H-benzo[d]imidazol-2-yl)methyl)-3-(1-(difluoromethyl)-1H-pyrazol-4-yl)-6-(4-methylpiperazin-1-yl) imidazo[1,2-b]pyridazin-8-amine] has an IC50 [1] of 1000 nM, a GI50 [2] of 247 nM and a DC50 [3] of 470 nM. The “Dmax (%)” value [3] was 100%.
`Cc1noc(C)c1-c1cnc2c(NCc3nc4cc(Cl)c(Cl)cc4[nH]3)cc(N3CCOCC3)nn12` [Cmpd 100, N-((5,6-dichloro-1H-benzo[d]imidazol-2-yl)methyl)-3-(3,5-dimethylisoxazol-4-yl)-6-morpholinoimidazo[1,2-b]pyridazin-8-amine] gave an IC50 [1] of 3000 nM, a remaining activity at 1 µM [1] of 73% and a GI50 [2] of 2030 nM. For the same molecule, the DC50 [3] was 10000 nM.
`Cc1ccnc2[nH]c(CNc3cc(N4CCN(C)CC4)nn4c(-c5cnn(C(C)C)c5)cnc34)nc12` [Cmpd 20, 3-(1-isopropyl-1H-pyrazol-4-yl)-N-((7-methyl-3H-imidazo[4,5-b]pyridin-2-yl)methyl)-6-(4-methylpiperazin-1-yl) imidazo[1,2-b]pyridazin-8-amine] gave an IC50 [1] of 531 nM, a remaining activity at 1 µM [1] of 30% and a GI50 [2] of 6670 nM. For the same molecule, the DC50 [3] was 10000 nM.
With `CC(C)n1cc(-c2cnc3c(NCc4nc5c(F)c(F)ccc5[nH]4)cc(N4CCOCC4)nn23)cn1` [Cmpd 24, N-((4,5-difluoro-1H-benzo[d]imidazol-2-yl)methyl)-3-(1-isopropyl-1H-pyrazol-4-yl)-6-morpholinoimidazo[1,2-b]pyridazin-8-amine] the IC50 [1] was 1270 nM, the remaining activity at 1 µM [1] was 60% and the GI50 [2] was 10000 nM. The DC50 [3] was 2100 nM and the “Dmax (%)” value [3] was 65%.
`CN1CCN(c2cc(NCc3nc4cc(Cl)c(Cl)cc4[nH]3)c3ncc(-c4cn[nH]c4)n3n2)CC1` [Cmpd 60, N-((5,6-dichloro-1H-benzo[d]imidazol-2-yl)methyl)-6-(4-methylpiperazin-1-yl)-3-(1H-pyrazol-4-yl) imidazo[1,2-b]pyridazin-8-amine] gave an IC50 [1] of 907 nM, a GI50 [2] of 284 nM and a DC50 [3] of 1400 nM. For the same molecule, the “Dmax (%)” value [3] was 100%.
`CN1CCN(c2cc(NCc3nc4cc(Cl)c(Cl)cc4[nH]3)c3ncc(-c4csc(C#N)c4)n3n2)CC1` [Cmpd 79, 4-(8-(((5,6-dichloro-1H-benzo[d]imidazol-2-yl)methyl)amino)-6-(4-methylpiperazin-1-yl)imidazo[1,2-b]pyridazin-3-yl)thiophene-2-carbonitrile] showed an IC50 [1] of 5000 nM, a remaining activity at 1 µM [1] of 80% and a GI50 [2] of 1470 nM. For the same molecule, the DC50 [3] was 1700 nM and the “Dmax (%)” value [3] was 75%.
Molecule `Fc1cccc2[nH]c(CNc3cc(N4CCOCC4)nn4c(-c5cnn(C6CC6)c5)cnc34)nc12` [Cmpd 36, 3-(1-cyclopropyl-1H-pyrazol-4-yl)-N-((4-fluoro-1H-benzo[d]imidazol-2-yl)methyl)-6-morpholinoimidazo[1,2-b]pyridazin-8-amine] has an IC50 [1] of 1220 nM, a remaining activity at 1 µM [1] of 45% and a GI50 [2] of 4670 nM. The DC50 [3] was 830 nM and the “Dmax (%)” value [3] was 65%.
For `N#Cc1cc(-c2cnc3c(NCc4nc5cc(Cl)c(Cl)cc5[nH]4)cc(N4CCOCC4)nn23)cs1` [Cmpd 80, 4-(8-(((5,6-dichloro-1H-benzo[d]imidazol-2-yl)methyl)amino)-6-morpholinoimidazo[1,2-b]pyridazin-3-yl)thiophene-2-carbonitrile], the IC50 [1] was 3000 nM, the remaining activity at 1 µM [1] was 75% and the GI50 [2] was 867 nM. The DC50 [3] was 1000 nM and the “Dmax (%)” value [3] was 95%.
Work on `CN1CCN(c2cc(NCc3nc4cc(Cl)c(Cl)cc4[nH]3)c3ncc(-c4cnn(C)c4)n3n2)CC1` [Cmpd 8, N-((5,6-dichloro-1H-benzo[d]imidazol-2-yl)methyl)-3-(1-methyl-1H-pyrazol-4-yl)-6-(4-methylpiperazin-1-yl) imidazo[1,2-b]pyridazin-8-amine] yielded an IC50 [1] of 10000 nM, a GI50 [2] of 424 nM and a DC50 [3] of 1300 nM. The “Dmax (%)” value [3] was 100%.
Work on `Cc1cc(-c2cnc3c(NCc4nc5c(F)cccc5[nH]4)cc(N4CCOCC4)nn23)cs1` [Cmpd 94, N-((4-fluoro-1H-benzo[d]imidazol-2-yl)methyl)-3-(5-methylthiophen-3-yl)-6-morpholinoimidazo[1,2-b]pyridazin-8-amine] yielded a remaining activity at 1 µM [1] of 70%, a GI50 [2] of 1500 nM and a DC50 [3] of 1000 nM. For the same molecule, the “Dmax (%)” value [3] was 80%.
Work on `CC(C)n1cc(-c2cnc3c(NCc4nc5c(F)c(F)ccc5[nH]4)cc(N4CCN(C)CC4)nn23)cn1` [Cmpd 23, N-((4,5-difluoro-1H-benzo[d]imidazol-2-yl)methyl)-3-(1-isopropyl-1H-pyrazol-4-yl)-6-(4-methylpiperazin-1-yl) imidazo[1,2-b]pyridazin-8-amine] yielded an IC50 [1] of 1110 nM, a remaining activity at 1 µM [1] of 53% and a GI50 [2] of 5180 nM. The DC50 [3] was 10000 nM.
Work on `Cc1cc(-c2cnc3c(NCc4nc5c(C)ccnc5[nH]4)cc(N4CCN(C)CC4)nn23)cs1` [Cmpd 90, N-((7-methyl-3H-imidazo[4,5-b]pyridin-2-yl)methyl)-6-(4-methylpiperazin-1-yl)-3-(5-methylthiophen-3-yl) imidazo[1,2-b]pyridazin-8-amine] yielded an IC50 [1] of 1410 nM, a remaining activity at 1 µM [1] of 36% and a GI50 [2] of 4160 nM. For the same molecule, the DC50 [3] was 10000 nM.
`Clc1cccc2nc(CNc3cc(N4CCOCC4)nn4c(-c5ccsc5)cnc34)[nH]c12` [Cmpd 67, N-((7-chloro-1H-benzo[d]imidazol-2-yl)methyl)-6-morpholino-3-(thiophen-3-yl) imidazo[1,2-b]pyridazin-8-amine] gave an IC50 [1] of 300 nM, a GI50 [2] of 207 nM and a DC50 [3] of 80 nM. The “Dmax (%)” value [3] was 85%.
For `NC1CCN(c2cc(NCc3nc4cccc(Cl)c4[nH]3)c3ncc(-c4ccsc4)n3n2)C1` (stereo not drawn) [Cmpd 69, 6-(3-aminopyrrolidin-1-yl)-N-((7-chloro-1H-benzo[d]imidazol-2-yl)methyl)-3-(thiophen-3-yl) imidazo[1,2-b]pyridazin-8-amine], the IC50 [1] was 57 nM, the GI50 [2] was 92 nM and the DC50 [3] was 150 nM. For the same molecule, the “Dmax (%)” value [3] was 85%.
Molecule `Cc1cc(-c2cnc3c(NCc4nc5cccc(Cl)c5[nH]4)cc(N4CCOCC4)nn23)cs1` [Cmpd 85, N-((7-chloro-1H-benzo[d]imidazol-2-yl)methyl)-3-(5-methylthiophen-3-yl)-6-morpholinoimidazo[1,2-b]pyridazin-8-amine] has a remaining activity at 1 µM [1] of 73%, a GI50 [2] of 3910 nM and a DC50 [3] of 1200 nM. The “Dmax (%)” value [3] was 85%.
`NC1CCN(c2cc(NCc3nc4cc(Cl)c(Cl)cc4[nH]3)c3ncc(-c4cnn(C(F)F)c4)n3n2)CC1` [Cmpd 45, 6-(4-aminopiperidin-1-yl)-N-((5,6-dichloro-1H-benzo[d]imidazol-2-yl)methyl)-3-(1-(difluoromethyl)-1H-pyrazol-4-yl) imidazo[1,2-b]pyridazin-8-amine] showed an IC50 [1] of 567 nM, a GI50 [2] of 365 nM and a DC50 [3] of 1200 nM. For the same molecule, the “Dmax (%)” value [3] was 100%.
